Laboratory results taken from US9833497B2, “Human originated EGF domain proteins and use of the same” (CHENGDU SOURCEBIO LIMITED-LIABILITY COMPANY, priority 2013, dated 2017).

Legend:
Type in all cases: cell-based
Aeromonas hydrophila = test: MIC against Gram-negative bacteria: Aeromonas hydrophila; settings: 5×10^5 CFU/mL; for MIC against A. hydrophila: Aeromonas hydrophila
Procedure, shortened: (§1)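 Read-out is absence of bacterial growth, with MIC set at the lowest recombinant protein concentration achieving it. Bacteria, pre-grown in LB to McFarland 0.5 and resuspended, were exposed at 5×10^5 CFU/mL to two-fold diluted human EGF domain proteins in triplicate at 37° C, 175 rpm.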

E. coli DH5α = test: Antibacterial activity: MIC and growth curve against E. coli DH5α in 96-well plate; settings: minimal inhibitory concentration against E. coli DH5α; 96-well plate, 5×10^5 CFU/mL, 37° C., judged after 8 h
Procedure, shortened: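 Log-phase bacteria (OD600 ~0.5) resuspended in LB at 5×10^5 CFU/mL, exposed to recombinant protein at 50, 25, 12.5 μg/mL final in triplicate, 37 °C shaking at 175 rpm. OD600 read every 30 min; MIC is lowest concentration showing no growth.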

Moraxella catarrhalis = test: MIC against Gram-negative bacteria: Moraxella catarrhalis; settings: 5×10^5 CFU/mL; for MIC against M. catarrhalis: Moraxella catarrhalis
Procedure, shortened: as §1

Pseudomonas aeruginosa = test: MIC against Gram-negative bacteria: Pseudomonas aeruginosa; settings: 5×10^5 CFU/mL; for MIC against P. aeruginosa: Pseudomonas aeruginosa
Procedure, shortened: as §1

Klebsiella pneumonia = test: MIC against Gram-negative bacteria: Klebsiella pneumonia; settings: 5×10^5 CFU/mL; for MIC against K. pneumonia: Klebsiella pneumonia
Procedure, shortened: as §1

Proteus mirabilis = test: MIC against Gram-negative bacteria: Proteus mirabilis; settings: 5×10^5 CFU/mL; for MIC against P. mirabilis: Proteus mirabilis
Procedure, shortened: as §1

E. coli BL21 = test: MIC against Gram-negative bacteria: E. coli BL21; settings: 5×10^5 CFU/mL
Procedure, shortened: as §1

Citrobacter diversus = test: MIC against Gram-negative bacteria: Citrobacter diversus; settings: 5×10^5 CFU/mL; for MIC against C. diversus: Citrobacter diversus
Procedure, shortened: as §1

Enterobacter cloacae = test: MIC against Gram-negative bacteria: Enterobacter cloacae; settings: 5×10^5 CFU/mL; for MIC against E. cloacae: Enterobacter cloacae
Procedure, shortened: as §1

Serratia marcescens = test: MIC against Gram-negative bacteria: Serratia marcescens; settings: 5×10^5 CFU/mL; for MIC against S. marcescens: Serratia marcescens
Procedure, shortened: as §1

Proteus vulgaris = test: MIC against Gram-negative bacteria: Proteus vulgaris; settings: 5×10^5 CFU/mL; for MIC against P. vulgaris: Proteus vulgaris
Procedure, shortened: as §1

[1] = E. coli BL21, 10 h cultivation at 37° C.
[2] = A. hydrophila, 10 h cultivation at 37° C.
[3] = M. catarrhalis, 10 h cultivation at 37° C.
[4] = P. aeruginosa, 10 h cultivation at 37° C.
[5] = K. pneumonia, 10 h cultivation at 37° C.
[6] = P. mirabilis, 10 h cultivation at 37° C.
[7] = C. diversus, 10 h cultivation at 37° C.
[8] = E. cloacae, 10 h cultivation at 37° C.
[9] = S. marcescens, 10 h cultivation at 37° C.
[10] = P. vulgaris, 10 h cultivation at 37° C.

Substance: PRT1362 (GKPTCPHACHTQGRCEEGQCVCDEGFAGVDCS; listed as Homo sapiens)
- MIC against A. hydrophila (Aeromonas hydrophila; 10 h cultivation at 37° C.): 50 µg/mL
- MIC (E. coli DH5α): 12.5 µg/mL
- MIC against M. catarrhalis (Moraxella catarrhalis; 10 h cultivation at 37° C.): 50 µg/mL
- MIC against P. aeruginosa (Pseudomonas aeruginosa; 10 h cultivation at 37° C.): 50 µg/mL
- MIC against K. pneumonia (Klebsiella pneumonia; 10 h cultivation at 37° C.): 25 µg/mL
- MIC against P. mirabilis (Proteus mirabilis; 10 h cultivation at 37° C.): 12.5 µg/mL
- MIC against E. coli BL21 (E. coli BL21; [1]): 25 µg/mL
- MIC against C. diversus (Citrobacter diversus; 10 h cultivation at 37° C.): 12.5 µg/mL
- MIC against E. cloacae (Enterobacter cloacae; 10 h cultivation at 37° C.): 12.5 µg/mL
- MIC against S. marcescens (Serratia marcescens; 10 h cultivation at 37° C.): 12.5 µg/mL
- MIC against P. vulgaris (Proteus vulgaris; 10 h cultivation at 37° C.): 12.5 µg/mL

Substance: PRT874 (CNCNQIGSVHDRCNETGFCECREGAAGPKCDDCLPTHYWRQGCYP; listed as Homo sapiens)
- MIC (μg/mL) A. hydrophila (Aeromonas hydrophila; [2]): 12.5 µg/mL
- MIC (E. coli DH5α): 12.5 µg/mL
- MIC (μg/mL) M. catarrhalis (Moraxella catarrhalis; [3]): 25 µg/mL
- MIC (μg/mL) P. aeruginosa (Pseudomonas aeruginosa; [4]): 12.5 µg/mL
- MIC (μg/mL) K. pneumonia (Klebsiella pneumonia; [5]): 12.5 µg/mL
- MIC (μg/mL) P. mirabilis (Proteus mirabilis; [6]): 12.5 µg/mL
- MIC (μg/mL) E. coli BL21 (E. coli BL21; [1]): 25 µg/mL
- MIC (μg/mL) C. diversus (Citrobacter diversus; [7]): 12.5 µg/mL
- MIC (μg/mL) E. cloacae (Enterobacter cloacae; [8]): 12.5 µg/mL
- MIC (μg/mL) S. marcescens (Serratia marcescens; [9]): 12.5 µg/mL
- MIC (μg/mL) P. vulgaris (Proteus vulgaris; [10]): 12.5 µg/mL

Substance: PRT865 (CSCHPVGSAVLPANSVTFCDPSNGDCPCKPGVAGRRCDRCMVGYWGFGDYGCRP; listed as Homo sapiens)
- MIC (μg/mL) A. hydrophila (Aeromonas hydrophila; [2]): 50 µg/mL
- MIC (E. coli DH5α): 25 µg/mL
- MIC (μg/mL) M. catarrhalis (Moraxella catarrhalis; [3]): 50 µg/mL
- MIC (μg/mL) P. aeruginosa (Pseudomonas aeruginosa; [4]): 25 µg/mL
- MIC (μg/mL) K. pneumonia (Klebsiella pneumonia; [5]): 50 µg/mL
- MIC (μg/mL) P. mirabilis (Proteus mirabilis; [6]): 25 µg/mL
- MIC (μg/mL) E. coli BL21 (E. coli BL21; [1]): 12.5 µg/mL
- MIC (μg/mL) C. diversus (Citrobacter diversus; [7]): 12.5 µg/mL
- MIC (μg/mL) E. cloacae (Enterobacter cloacae; [8]): 12.5 µg/mL
- MIC (μg/mL) S. marcescens (Serratia marcescens; [9]): 12.5 µg/mL
- MIC (μg/mL) P. vulgaris (Proteus vulgaris; [10]): 12.5 µg/mL

Substance: PRT1347 (NVDECLSQPCKNGATCKDGANSFRCLCAAGFTGSHCE; listed as Homo sapiens)
- MIC against A. hydrophila (Aeromonas hydrophila; 10 h cultivation at 37° C.): 25 µg/mL
- MIC (E. coli DH5α): 25 µg/mL
- MIC against M. catarrhalis (Moraxella catarrhalis; 10 h cultivation at 37° C.): 25 µg/mL
- MIC against P. aeruginosa (Pseudomonas aeruginosa; 10 h cultivation at 37° C.): 25 µg/mL
- MIC against K. pneumonia (Klebsiella pneumonia; 10 h cultivation at 37° C.): 50 µg/mL
- MIC against P. mirabilis (Proteus mirabilis; 10 h cultivation at 37° C.): 50 µg/mL
- MIC against E. coli BL21 (E. coli BL21; [1]): 12.5 µg/mL
- MIC against C. diversus (Citrobacter diversus; 10 h cultivation at 37° C.): 12.5 µg/mL
- MIC against E. cloacae (Enterobacter cloacae; 10 h cultivation at 37° C.): 25 µg/mL
- MIC against S. marcescens (Serratia marcescens; 10 h cultivation at 37° C.): 12.5 µg/mL
- MIC against P. vulgaris (Proteus vulgaris; 10 h cultivation at 37° C.): 100 µg/mL

Substance: PRT165 (DVRACSSAPCANNGTCVSLDDGLYECSCAPGYSGKDCQ; listed as Homo sapiens)
- MIC (μg/mL) A. hydrophila (Aeromonas hydrophila; [2]): 25 µg/mL
- MIC (E. coli DH5α): 12.5 µg/mL
- MIC (μg/mL) M. catarrhalis (Moraxella catarrhalis; [3]): 25 µg/mL
- MIC (μg/mL) P. aeruginosa (Pseudomonas aeruginosa; [4]): 25 µg/mL
- MIC (μg/mL) K. pneumonia (Klebsiella pneumonia; [5]): 12.5 µg/mL
- MIC (μg/mL) P. mirabilis (Proteus mirabilis; [6]): 12.5 µg/mL
- MIC (μg/mL) E. coli BL21 (E. coli BL21; [1]): 12.5 µg/mL
- MIC (μg/mL) C. diversus (Citrobacter diversus; [7]): 25 µg/mL
- MIC (μg/mL) E. cloacae (Enterobacter cloacae; [8]): 25 µg/mL
- MIC (μg/mL) S. marcescens (Serratia marcescens; [9]): 12.5 µg/mL
- MIC (μg/mL) P. vulgaris (Proteus vulgaris; [10]): 25 µg/mL

Substance: PRT312 (DNNECTSDINLCGSKGICQNTPGSFTCECQRGFSLDQTGSSCE; listed as Homo sapiens)
- MIC (Aeromonas hydrophila; [2]): 25 µg/mL
- MIC (E. coli DH5α): 50 µg/mL
- MIC (Moraxella catarrhalis; [3]): 25 µg/mL
- MIC (Pseudomonas aeruginosa; [4]): 50 µg/mL
- MIC (Klebsiella pneumonia; [5]): 25 µg/mL
- MIC (Proteus mirabilis; [6]): 12.5 µg/mL
- MIC (E. coli BL21; [1]): 12.5 µg/mL
- MIC (Citrobacter diversus; [7]): 50 µg/mL
- MIC (Enterobacter cloacae; [8]): 12.5 µg/mL
- MIC (Serratia marcescens; [9]): 50 µg/mL
- MIC (Proteus vulgaris; [10]): 25 µg/mL

Substance: PRT648 (DIDECLNPSTCPDEQCVNSPGSYQCVPCTEGFRGWNGQCL; listed as Homo sapiens)
- MIC A. hydrophila (Aeromonas hydrophila; 96-well plate, 37° C., 10 h): 50 µg/mL
- MIC (E. coli DH5α): 12.5 µg/mL
- MIC M. catarrhalis (Moraxella catarrhalis; 96-well plate, 37° C., 10 h): 50 µg/mL
- MIC P. aeruginosa (Pseudomonas aeruginosa; 96-well plate, 37° C., 10 h): 50 µg/mL
- MIC K. pneumonia (Klebsiella pneumonia; 96-well plate, 37° C., 10 h): 25 µg/mL
- MIC P. mirabilis (Proteus mirabilis; 96-well plate, 37° C., 10 h): 12.5 µg/mL
- MIC E. coli BL21 (E. coli BL21; 96-well plate, 37° C., 10 h): 25 µg/mL
- MIC C. diversus (Citrobacter diversus; 96-well plate, 37° C., 10 h): 12.5 µg/mL
- MIC E. cloacae (Enterobacter cloacae; 96-well plate, 37° C., 10 h): 12.5 µg/mL
- MIC S. marcescens (Serratia marcescens; 96-well plate, 37° C., 10 h): 12.5 µg/mL
- MIC P. vulgaris (Proteus vulgaris; 96-well plate, 37° C., 10 h): 50 µg/mL
